Several values for one entry are separate records, joined by “and”; a condition that tells them apart may be missing. Equal values may be shown once. Inconclusive results and toxic doses are left out. Rule as the data show it: active = T/C of 150% or more; inactive = T/C below 125%.
Tested on: L1210 leukemia ip in BDF1 mice, survival T/C
Assay: NCI In Vivo Anticancer Drug Screen. Data for tumor model L1210 Leukemia (intraperitoneal) in B6D2F1 (BDF1) mice
Conditions: endpoint: mean survival time, higher = longer survival
Outline: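 Ratio derived from survival: compound-dosed mice over vehicle-dosed mice, all bearing a transplantable tumor.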

[1] = dose: 100.0 mg/kg/injection, schedule: Q01DX009 (ip), vehicle: saline
[2] = dose: 100.0 mg/kg/injection, schedule: Q04DX003 (ip), vehicle: saline
[3] = dose: 200.0 mg/kg/injection, schedule: Q01DX009 (ip), vehicle: saline
[4] = dose: 200.0 mg/kg/injection, schedule: Q04DX003 (ip), vehicle: saline
[5] = dose: 400.0 mg/kg/injection, schedule: Q01DX009 (ip), vehicle: saline
[6] = dose: 400.0 mg/kg/injection, schedule: Q04DX003 (ip), vehicle: saline
[7] = dose: 50.0 mg/kg/injection, schedule: Q01DX009 (ip), vehicle: saline with Tween-80
[8] = dose: 100.0 mg/kg/injection, schedule: Q01DX001 (ip), vehicle: saline
[9] = dose: 100.0 mg/kg/injection, schedule: Q04DX002 (ip), vehicle: saline with Tween-80
[10] = dose: 100.0 mg/kg/injection, schedule: Q04DX003 (ip), vehicle: saline with Tween-80
[11] = dose: 200.0 mg/kg/injection, schedule: Q01DX001 (ip), vehicle: saline
[12] = dose: 200.0 mg/kg/injection, schedule: Q04DX003 (ip), vehicle: saline with Tween-80
[13] = dose: 400.0 mg/kg/injection, schedule: Q04DX003 (ip), vehicle: saline with Tween-80
[14] = dose: 25.0 mg/kg/injection, schedule: Q01DX009 (ip), vehicle: saline
[15] = dose: 50.0 mg/kg/injection, schedule: Q01DX009 (ip), vehicle: saline
[16] = dose: 100.0 mg/kg/injection, schedule: Q04DX003 (ip), vehicle: acetone

Measured: T/C

O=[P+](O)c1ccccc1
inactive: [1] 94 % of control | [2] 103 % of control | [3] 100 % of control | [4] 98 % of control | [5] 100 % of control | [6] 101 % of control

CCOC(=O)C1=C(O)c2ccccc2C1c1ccccc1 (stereo unspecified)
inactive: dose: 100.0 mg/kg/injection, schedule: Q01DX009 (ip), vehicle: Klucel (hydroxypropylcellulose) (HPC) 93 % of control | dose: 200.0 mg/kg/injection, schedule: Q01DX009 (ip), vehicle: Klucel (hydroxypropylcellulose) (HPC) 91 % of control | dose: 400.0 mg/kg/injection, schedule: Q01DX009 (ip), vehicle: Klucel (hydroxypropylcellulose) (HPC) 93 % of control

Cc1ccc(Cl)cc1NC(=O)N1C(C)CCCC1C (stereo unspecified)
inactive: dose: 25.0 mg/kg/injection, schedule: Q01DX009 (ip), vehicle: saline with Tween-80 94 % of control and 110 % of control | [7] 106 % of control and 108 % of control | dose: 50.0 mg/kg/injection, schedule: Q04DX003 (ip), vehicle: saline with Tween-80 100 % of control | dose: 100.0 mg/kg/injection, schedule: Q01DX001 (ip), vehicle: saline with Tween-80 101 % of control and 118 % of control | [8] 102 % of control | [9] 95 % of control and 89 % of control | [10] 104 % of control | dose: 200.0 mg/kg/injection, schedule: Q01DX001 (ip), vehicle: saline with Tween-80 101 % of control and 110 % of control | [11] 108 % of control | dose: 200.0 mg/kg/injection, schedule: Q04DX002 (ip), vehicle: saline with Tween-80 93 % of control and 106 % of control | [12] 109 % of control | dose: 400.0 mg/kg/injection, schedule: Q01DX001 (ip), vehicle: saline with Tween-80 101 % of control | dose: 400.0 mg/kg/injection, schedule: Q04DX002 (ip), vehicle: saline with Tween-80 102 % of control

COc1ccc2cc(C(C)=O)ccc2c1
inactive: dose: 50.0 mg/kg/injection, schedule: Q01DX001 (ip), vehicle: saline 117 % of control | [8] 105 % of control | [11] 100 % of control | dose: 400.0 mg/kg/injection, schedule: Q01DX001 (ip), vehicle: saline 110 % of control

Cc1onc(-c2ccccc2Cl)c1C(=O)NC(=S)NC1CC(C)CC(C)(C)C1 (stereo unspecified)
inactive: dose: 25.0 mg/kg/injection, schedule: Q04DX002 (ip), vehicle: saline with Tween-80 97 % of control | dose: 50.0 mg/kg/injection, schedule: Q04DX002 (ip), vehicle: saline with Tween-80 90 % of control | [9] 90 % of control

CCOc1ccc(O)cc1
inactive: dose: 100.0 mg/kg/injection, schedule: Q04DX002 (ip), vehicle: saline + alcohol 109 % of control | dose: 200.0 mg/kg/injection, schedule: Q04DX002 (ip), vehicle: saline + alcohol 100 % of control

CC(O)CC(C)(C)c1ccccc1 (stereo unspecified)
inactive: [7] 93 % of control | dose: 100.0 mg/kg/injection, schedule: Q01DX009 (ip), vehicle: saline with Tween-80 93 % of control | dose: 200.0 mg/kg/injection, schedule: Q01DX009 (ip), vehicle: saline with Tween-80 89 % of control

CC1CCCC(C)(CO)O1 (stereo unspecified)
inactive: [1] 93 % of control | [2] 97 % of control | [3] 101 % of control | [4] 97 % of control | [5] 109 % of control | [6] 97 % of control

CCOC(=O)CSCCC1CC(=O)N1 (stereo unspecified)
inactive: dose: 100.0 mg/kg/injection, schedule: Q04DX003 (ip), vehicle: other 103 % of control | dose: 200.0 mg/kg/injection, schedule: Q04DX003 (ip), vehicle: other 104 % of control | dose: 400.0 mg/kg/injection, schedule: Q04DX003 (ip), vehicle: other 107 % of control

CN(C)CCNS(=O)(=O)N(C)C
inactive: [1] 102 % of control | [2] 95 % of control | [3] 102 % of control | [4] 100 % of control | [5] 108 % of control | [6] 97 % of control

CC12CCC3C(CCC4=CC(=O)C(C(O)(C(F)(F)F)C(F)(F)F)CC43C)C1CC(C(O)(C(F)(F)F)C(F)(F)F)C2=O (stereo unspecified)
inactive: dose: 100.0 mg/kg/injection, schedule: Q01DX001 (sc), vehicle: steriod suspending solution 97 % of control | dose: 200.0 mg/kg/injection, schedule: Q01DX001 (sc), vehicle: steriod suspending solution 103 % of control | dose: 400.0 mg/kg/injection, schedule: Q01DX001 (sc), vehicle: steriod suspending solution 101 % of control

CN1N(C(O)C(Cl)(Cl)Cl)C12CCCCC2 (stereo unspecified)
inactive: dose: 200.0 mg/kg/injection, schedule: Q01DX001 (ip), vehicle: carboxymethylcellulose (CMC) 101 % of control | dose: 400.0 mg/kg/injection, schedule: Q01DX001 (ip), vehicle: carboxymethylcellulose (CMC) 98 % of control

CC(=O)Nc1cccc(/C=C/C=C/c2ccc([N+](=O)[O-])cc2)c1
inactive: [10] 93 % of control | [12] 90 % of control | [13] 90 % of control

C[N+](C)(C)C1(Cc2ccccc2)c2ccccc2-c2ccc(Br)cc21 (stereo unspecified)
inactive: [14] 104 % of control | dose: 25.0 mg/kg/injection, schedule: Q04DX003 (ip), vehicle: saline 102 % of control | [15] 95 % of control | dose: 50.0 mg/kg/injection, schedule: Q04DX003 (ip), vehicle: saline 97 % of control | [1] 94 % of control | [2] 98 % of control and 100 % of control

NC(=O)NN=C(CS)CS
inactive: dose: 0.5 mg/kg/injection, schedule: Q01DX015 (ip), vehicle: carboxymethylcellulose (CMC) 93 % of control | dose: 1.0 mg/kg/injection, schedule: Q01DX015 (ip), vehicle: carboxymethylcellulose (CMC) 98 % of control | dose: 2.0 mg/kg/injection, schedule: Q01DX015 (ip), vehicle: carboxymethylcellulose (CMC) 96 % of control | dose: 4.0 mg/kg/injection, schedule: Q01DX015 (ip), vehicle: carboxymethylcellulose (CMC) 98 % of control and 104 % of control | dose: 5.0 mg/kg/injection, schedule: Q01DX001 (ip), vehicle: other 97 % of control | dose: 8.0 mg/kg/injection, schedule: Q01DX015 (ip), vehicle: carboxymethylcellulose (CMC) 98 % of control | dose: 10.0 mg/kg/injection, schedule: Q01DX001 (ip), vehicle: other 97 % of control | dose: 16.0 mg/kg/injection, schedule: Q01DX015 (ip), vehicle: carboxymethylcellulose (CMC) 98 % of control | dose: 20.0 mg/kg/injection, schedule: Q01DX001 (ip), vehicle: other 94 % of control | dose: 25.0 mg/kg/injection, schedule: Q04DX003 (ip), vehicle: Klucel (hydroxypropylcellulose) (HPC) 104 % of control | dose: 32.0 mg/kg/injection, schedule: Q01DX015 (ip), vehicle: carboxymethylcellulose (CMC) 98 % of control | dose: 40.0 mg/kg/injection, schedule: Q01DX001 (ip), vehicle: other 97 % of control | dose: 50.0 mg/kg/injection, schedule: Q04DX003 (ip), vehicle: Klucel (hydroxypropylcellulose) (HPC) 101 % of control | dose: 80.0 mg/kg/injection, schedule: Q01DX001 (ip), vehicle: other 95 % of control | dose: 100.0 mg/kg/injection, schedule: Q04DX003 (ip), vehicle: Klucel (hydroxypropylcellulose) (HPC) 101 % of control

CCOC(=O)CN1C(=O)NC(CC)(CC)C1=O
inactive: [1] 96 % of control | [16] 104 % of control | [3] 94 % of control | dose: 200.0 mg/kg/injection, schedule: Q04DX003 (ip), vehicle: acetone 107 % of control | [5] 105 % of control | dose: 400.0 mg/kg/injection, schedule: Q04DX003 (ip), vehicle: acetone 102 % of control

O=C(O)c1c(O)cc(O)cc1O
inactive: [10] 95 % of control | [12] 95 % of control

O=c1cc[nH]c2cc(Cl)ccc12
inactive: [15] 102 % of control | [1] 97 % of control

O=C(O)c1ccncc1C(=O)c1csc2ccccc12
inactive: [14] 108 % of control | [15] 102 % of control | dose: 50.0 mg/kg/injection, schedule: Q04DX003 (ip), vehicle: acetone 99 % of control | [1] 94 % of control | [16] 99 % of control

CNC(=O)NC1C(O)C(OC)OC2COC(c3ccccc3)OC21 (stereo unspecified)
inactive: [10] 92 % of control | [12] 92 % of control

CCSCCOc1c(C(C)(C)C)cc([N+](=O)[O-])c(C)c1[N+](=O)[O-]
inactive: dose: 100.0 mg/kg/injection, schedule: Q04DX002 (ip), vehicle: saline 103 % of control | dose: 200.0 mg/kg/injection, schedule: Q04DX002 (ip), vehicle: saline 100 % of control | dose: 400.0 mg/kg/injection, schedule: Q04DX002 (ip), vehicle: saline 106 % of control

CC1(C)C2CCC1(C)C(OC(=O)C1OC(O)C(O)C(O)C1O)C2 (stereo unspecified)
inactive: [10] 102 % of control | [12] 104 % of control | [13] 102 % of control
